Measurements: patent US9828351B2, “Enzyme interacting agents” (MONASH UNIVERSITY, priority 2014, dated 2017)
Where two headings read alike, the source gives them in different places.

Columns and labels:
[1] = tested on: PC3 prostate cancer cell lines; assay: Anticancer activity in PC3 cell line, CellTitre AQueous One cell viability assay; format: cell-based; conditions: concentration required to inhibit cell proliferation by 50%, 72 hours
Description: Measurement of Anticancer Activity in PC3 Cell Line Assays
PC3 prostate cancer cell lines were cultured in DMEM (containing 10% fetal calf serum and penicillin-streptomycin).
Before treatment with drug compounds, cells were plated at 2,500 cells/well in 96 well plates and incubated at 37° C. with 5% CO2 in a humidified incubator for 24 hours prior. Cells were only plated in columns 3-10 and rows C—F to ensure uniform humidity and warmth across all wells. The remaining wells were filled with 100 μL of phosphate buffered saline.
Drug stock solutions (50 or 10 mM) were diluted×1000 in media to a final concentration of either 50 μM or 10 μM with a DMSO vehicle concentration of 0.1%.
Cell culture supernatants were aspirated and replaced with drug containing media. Drug treatments were performed in duplicate wells, while potential plate layout-specific variation in cell growth was accounted for by addition of a vehicle control (0.1% DMSO).
Cells were then incubated with drug compounds at 37° C. with 5% CO2 in a humidified incubator for 72 hours prior to assay.
Media was diluted with CellTitre AQueous One Solution (Promega, Australia; Cat # G3580) according to manufacturer's instructions to produce a final concentration of 317 μg/mL.
Cell culture supernatants were then aspirated from wells and replaced with 100 μL of CellTitre solution. Triplicate cell-free control wells containing only CellTitre solution were also included in each assay.
Cells were then incubated at 37° C. with 5% CO2 in a humidified incubator for 1 hour at which time absorbance was read at 490 nm with an EnVision microplate reader (Perkin Elmer, Australia).
When analysing data, background absorbance (taken from cell-free control wells) was subtracted from each reading. […] For each drug concentration the mean (±SEM) is calculated and graphed using GraphPad Prism (version 5). A sigmoidal curved is fitted to the data and used to calculate the IC50 of each compound.

[2] = target: T1, recombinant his tagged human SphK1 (Homo sapiens, UniProt Q9NYA1); assay: SphK1 activity assay (32P-labelled S1P production); format: biochemical; conditions: 10 μM compound; % of activity compared to control (DMSO vehicle only)
T1 construct: His tag; made in house; host or cells: insect cells (baculovirus system)
T1 sequence (Q9NYA1 whole entry): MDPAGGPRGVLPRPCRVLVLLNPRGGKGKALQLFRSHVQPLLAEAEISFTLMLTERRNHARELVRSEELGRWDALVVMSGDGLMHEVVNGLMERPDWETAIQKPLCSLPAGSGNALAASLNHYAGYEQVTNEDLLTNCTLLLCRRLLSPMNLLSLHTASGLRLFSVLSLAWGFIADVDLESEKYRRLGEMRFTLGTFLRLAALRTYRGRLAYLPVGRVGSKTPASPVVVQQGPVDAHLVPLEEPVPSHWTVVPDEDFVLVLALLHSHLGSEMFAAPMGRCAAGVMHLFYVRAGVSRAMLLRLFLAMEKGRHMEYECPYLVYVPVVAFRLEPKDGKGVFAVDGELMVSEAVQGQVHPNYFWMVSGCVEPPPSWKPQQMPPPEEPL
Description: (§1) The SphK assays employed, measure SphK activity through the production of ^32P-labelled S1P following the addition of exogenous Sph and [γ^32P] ATP.
(§2) Activities of SphK1 and SphK2 were determined using identical assay conditions with the exception that SphK1 assays used 3 ng/assay recombinant his tagged human SphK1 (made in the lab in a baculovirus system using insect cells), while SphK2 assays used 30 ng/assay recombinant human SphK2 (purchased by Johnson and Johnson).
(§3) Compounds were dissolved in DMSO at 10 mM, the mixture was vortexed (and sonicated if necessary). Stock solutions were kept at 4° C. until used.
(§4) Aliquots were made containing 100 μM drug compound. These aliquots were then diluted in assay buffer: 100 mM tris/HCl pH 7.4, 100 mM NaCl, 1 mM sodium orthovanadate, 10 mM NaF to make up a 10 μM solution.
(§5) Recombinant enzyme was diluted in assay buffer (above) to make up a final concentration of 0.03 ng/μL (SphK1) or 0.33 ng/μL (SphK2).
(§6) 40 μL recombinant enzyme was added to an Eppendorf® Safe-Lock® microcentrifuge tube. This was followed by the addition of drug compound from prepared aliquots, before adding ATP, [γ^32P]ATP and Sph. Note: ATP stock is made up in 1M Tris pH 7.4 and 200 mM MgCl2. This allows ATP to complex with Mg and be available as a substrate.
(§7) The rest of the reaction mixture was then added to the enzyme sample (Table 1). All reactions were performed as triplicates.
(§8) Reaction mixture was prepared with sufficient volume to assay all of the required samples. To do this, each of the volumes shown was multiplied by n+1, where n is the number of samples to be assayed. Assay buffer used is made up of 100 mM tris/HCl pH 7.4, 100 mM NaCl, 1 mM sodium orthovanadate and 10 mM NaF.
(§9) The mixture was then incubated at 37° C. for 20 min (SphK1)/45 min (SphK2).
(§10) To the 100 μL assay mixture, add 270 μl of chloroform/methanol/conc. HCl (100:200:1).
(§11) 20 μL of 5 M KCl was then added to the assay mixture.
(§12) 70 μL of chloroform was added to create phase separation. The solution was vortexed to mix well.
(§13) The solution was then centrifuged for 5 min at 13,000×g to fully separate the phases.
(§14) The upper aqueous/methanol phase was separated by aspiration.
(§15) 50 μL of the remaining lower chloroform phase […] was applied onto the TLC plate by repeatedly spotting a few microliters of liquid (<5 mm diameter circle) between each sample spot with the pipette tip. The liquid was then allowed to absorb into the plate before drying with a stream of air.
(§16) The TLC plate was developed in a glass TLC developing tank with 1-butanol/ethanol/glacial acetic acid/H2O (8:2:1:2) until the mobile phase is within 1 cm of the top of the TLC plate.
(§17) The TLC plate was then exposed to a storage phosphor screen overnight. Storage phosphor screens work by capturing images produced by ionising radiation (e.g. ^32P). The phosphorimager stimulates the screen which uses lasers to convert the latent signal to light. Light is proportional to the amount of radioactivity in the sample. The image is then quantified using standard quantification software (ImageQuant™). Whatman paper with the assay mixture dilutions, was included to assist quantification of the phosphor signal.
(§18) Once the storage phosphor screen was read using the phosphorimager, S1P spots, which have an Rf of 0.7 with the mobile phase employed, were quantified.
(§19) The S1P spot intensity can be converted to the amount of phosphate transferred/min/mg protein.

[3] = target: T2, Dihydroceramide Desaturase-1 (Des1) (Homo sapiens, UniProt O15121); assay: Dihydroceramide desaturase-1 (Des1) activity by HPLC in intact Jurkat cells labeled with DhCer-C6-NBD; format: cell-based
T2 construct: These modifications included the use of parental Jurkat cells; endogenous in cells; host or cells: parental Jurkat cells
T2 sequence (O15121 1-323): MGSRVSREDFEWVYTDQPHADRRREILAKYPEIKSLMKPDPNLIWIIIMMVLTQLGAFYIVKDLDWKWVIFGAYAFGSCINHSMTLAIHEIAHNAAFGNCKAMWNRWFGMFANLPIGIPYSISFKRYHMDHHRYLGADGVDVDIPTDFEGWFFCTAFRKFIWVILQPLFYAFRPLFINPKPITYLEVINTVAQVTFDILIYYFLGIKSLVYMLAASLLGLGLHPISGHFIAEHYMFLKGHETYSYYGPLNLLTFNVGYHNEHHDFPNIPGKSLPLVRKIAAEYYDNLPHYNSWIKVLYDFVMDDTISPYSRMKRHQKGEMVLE
Description: Measurement of Dihydroceramide Desaturase-1 (Des1) Activity:
These modifications included the use of parental Jurkat cells, 0.5% serum in the culture media, and cell harvesting via centrifugation at 500×g to maximise ceramide extraction. Extracted samples (50 ul) were analysed on a Waters HPLC coupled to a fluorescence detector using a 30 cm C18 reverse-phase column eluted with 1 ml/min 20% H2O and 80% acetonitrile, both with a 0.1% of trifluoroacetic acid.

recombinant human SphK2 = target: T3, recombinant human SphK2 (Homo sapiens, UniProt Q9NRA0); assay: SphK2 activity assay (32P-labelled S1P production); format: biochemical; conditions: 10 μM compound, % of activity compared to control (DMSO vehicle only); for remaining activity at 10 µM: read-out: SphK2% actvity at 10 μm
T3 construct: purchased Johnson and Johnson
T3 sequence (Q9NRA0 1-654): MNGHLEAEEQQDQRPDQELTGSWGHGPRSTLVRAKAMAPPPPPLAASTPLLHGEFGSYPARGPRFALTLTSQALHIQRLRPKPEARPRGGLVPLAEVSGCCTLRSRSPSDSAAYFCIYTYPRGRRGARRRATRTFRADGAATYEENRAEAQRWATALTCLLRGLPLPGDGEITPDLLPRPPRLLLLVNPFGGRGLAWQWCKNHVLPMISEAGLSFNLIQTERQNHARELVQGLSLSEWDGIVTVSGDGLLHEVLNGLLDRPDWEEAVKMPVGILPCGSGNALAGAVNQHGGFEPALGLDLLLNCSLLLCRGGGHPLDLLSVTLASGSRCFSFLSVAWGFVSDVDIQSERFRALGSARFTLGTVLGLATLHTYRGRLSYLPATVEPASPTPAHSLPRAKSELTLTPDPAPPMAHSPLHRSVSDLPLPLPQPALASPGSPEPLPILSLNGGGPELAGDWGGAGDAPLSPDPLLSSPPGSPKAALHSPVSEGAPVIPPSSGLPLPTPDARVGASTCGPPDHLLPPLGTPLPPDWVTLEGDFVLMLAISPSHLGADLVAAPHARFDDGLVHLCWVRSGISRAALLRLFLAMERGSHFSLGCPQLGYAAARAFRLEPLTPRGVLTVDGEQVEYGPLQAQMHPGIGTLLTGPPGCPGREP
Description: as §1, §2, §3, §4, §5, §6, §7, §8, §9, §10, §11, §12, §13, §14, §15, §16, §17, §18, §19

[4] = intact Jurkat cells, read-out: Des 1 IC50

Row | Compound | IC50 [3, 4] [µM] | IC50 ([1]; Homo sapiens, PC-3) [µM] | activity at 10 µM [2] [%] | remaining activity at 10 µM (recombinant human SphK2) [%] | other results
1 | 3-(4-((5-(4-Chlorophenyl)-1,3,4-oxadiazol-2-yl)amino)phenyl)-1,2,4-oxadiazol-5(4H)-one [Example E-16] |  |  |  |  | IC50 [1]: 0.1 to 1 µM; SphK1% activity at 10 μm [2]: 100-150%; Des 1 IC50 ([3]; intact Jurkat cells): inactive; SphK2% actvity at 10 μm (recombinant human SphK2): 100-150%
2 | Oc1ccc(Nc2nnc(-c3ccc(Cl)cc3)o2)cc1 [Example E-1, 5-(4-Chlorophenyl)-N-(4-hydroxyphenyl)-1,3,4-oxadiazol-2-amine] | 0.1 to 1 |  |  |  | 
3 | Oc1ccc(Nc2nnc(-c3ccc(Cl)cc3)s2)cc1 [Example E-2, 4-((5-(4-Chlorophenyl)-1,3,4-thiadiazol-2-yl)amino)phenol] | 1 to 10 |  |  |  | 
4 | Oc1ccc(Nc2noc(-c3ccc(Cl)cc3)n2)cc1 [Example E-3, 4-((5-(4-Chlorophenyl)-1,2,4-oxadiazol-3-yl)amino)phenol] | 1 to 10 |  |  |  | 
5 | Oc1ccc(Nc2nc(-c3ccc(Cl)cc3)no2)cc1 [Example E-4, 4-((3-(4-Chlorophenyl)-1,2,4-oxadiazol-5-yl)amino)phenol] | 1 to 10 |  |  |  | 
6 | O=C(Nc1ccc(O)cc1)c1csc(-c2ccc(Cl)cc2)n1 [Example E-6, 2-(4-Chlorophenyl)-N-(4-hydroxyphenyl)thiazole-4-carboxamide] |  | > 100 | 20 to 50 | 50 to 80 | 
7 | N/C(=N\O)c1ccc(Nc2nnc(-c3ccc(Cl)cc3)o2)cc1 [Example E-9, (Z)-4-((5-(4-Chlorophenyl)-1,3,4-oxadiazol-2-yl)amino)-N′-hydroxybenzimidamide] | 1 to 10 |  |  |  | 
8 | Cc1nc(-c2ccc(Nc3nnc(-c4ccc(Cl)cc4)o3)cc2)no1 [Example E-10, 5-(4-Chlorophenyl)-N-(4-(5-methyl-1,2,4-oxadiazol-3-yl)phenyl)-1,3,4-oxadiazol-2-amine] |  | > 100 | 80 to 100 | 50 to 80 | 
9 | O=C(Nc1ccc(-c2nnc(-c3ccc(Cl)cc3)o2)cc1)[C@H]1NCC[C@@H]1O [Example E-12, (2S,3S)-2-((4-(5-(4-chlorophenyl)-1,3,4-oxadiazol-2-yl)phenyl)carbamoyl)-3-hydroxypyrrolidin-1-ium chloride] |  | > 100 | 50 to 80 | 20 to 50 | 
10 | N=C(N)c1ccc(-c2nnc(-c3ccccc3)o2)cc1 [Example E-17, Amino(4-(5-phenyl-1,3,4-oxadiazol-2-yl)phenyl)methaniminium chloride] |  | > 100 | 200 to 300 | 80 to 100 | 
11 | O=C(NCc1ccc(-c2nnc(-c3ccc(Cl)cc3)o2)cc1)[C@H]1NCC[C@@H]1O [Example E-18, (2S,3S)-2-((4-(5-(4-chlorophenyl)-1,3,4-oxadiazol-2-yl)benzyl)carbamoyl)-3-hydroxypyrrolidin-1-ium chloride] |  | > 100 | 50 to 80 | 80 to 100 | 
12 | N=C(N)c1ccc(Nc2nnc(-c3ccccc3)o2)cc1 [Example E-20, Amino(4-((5-phenyl-1,3,4-oxadiazol-2-yl)amino)phenyl)methaniminium chloride] |  | > 100 | 80 to 100 | 20 to 50 | 
13 | Cl.N=C(N)c1ccc(Nc2nnc(-c3ccc(Cl)cc3)o2)cc1 [Example E-23, Amino(4-((5-(4-chlorophenyl)-1,3,4-oxadiazol-2-yl)amino)phenyl)methaniminium chloride] |  |  |  |  | Des 1 IC50 ([3]; intact Jurkat cells): inactive
14 | Oc1ccc(Nc2nnc(-c3ccc(I)cc3)o2)cc1 [Example E-24, 4-((5-(4-Iodophenyl)-1,3,4-oxadiazol-2-yl)amino)phenol] | 1 to 10 |  |  |  | 
15 | Oc1ccc(Nc2nnc(-c3ccc(C(F)(F)F)cc3)o2)cc1 [Example E-26, 4-((5-(4-(Trifluoromethyl)phenyl)-1,3,4-oxadiazol-2-yl)amino)phenol] |  |  |  |  | IC50 [3]: 0.1 to 1 µM
16 | Clc1ccc(-c2nnc(NCc3ccncc3)o2)cc1 [Example E-30, 5-(4-Chlorophenyl)-N-(pyridin-4-ylmethyl)-1,3,4-oxadiazol-2-amine] |  | > 100 | 1 to 5 | 20 to 50 | 
17 | Oc1ccc(Nc2nsc(-c3ccc(Cl)cc3)n2)cc1 [Example E-31, 4-((5-(4-chlorophenyl)-1,2,4-thiadiazol-3-yl)amino)phenol] | 0.1 to 1 |  |  |  | 
18 | Oc1ccc(Nc2nc(-c3ccc(Cl)cc3)ns2)cc1 [Example E-32, 4-((3-(4-chlorophenyl)-1,2,4-thiadiazol-5-yl)amino)phenol] | 0.1 to 1 |  |  |  | 
